According to US20240158446A1, “CYCLIC COMPOUND HAVING SELECTIVE INHIBITORY ACTION ON KRAS OVER HRAS AND NRAS” (CHUGAI SEIYAKU KABUSHIKI KAISHA, priority 2021, published 2024):
Where two headings read alike, the source gives them in different places. *1 amine or outer side, *2 acyl side, *3 side chain or, on linkers, in order; H or OH if unused. Where a SMILES comes first, the peptide text is derived from it. Bridges are numbered along the chain shown (N, C = ends). [ ]: non-standard residue; d: D form. The star is where a group is joined. hPhe(3-Cl-4-CF3) = N[C@@H](CCc1ccc(C(F)(F)F)c(Cl)c1)C(=O)O; NPrPhe(4-CF3) = CCCN[C@@H](Cc1ccc(C(F)(F)F)cc1)C(=O)O; X41 = Cc1ccc(C[C@@H](C(=O)[*:2])N(CC2CCCCC2)[*:1])cc1; NMeGly(cPent) = CN[C@H](C(=O)O)C1CCCC1; NMeD = CN[C@@H](CC(=O)O)C(=O)O; NMeL = CN[C@@H](CC(C)C)C(=O)O; Morpholide = C1CN(*)CCO1; Ac5c = NC1(C(=O)O)CCCC1; Aze = O=C(O)[C@@H]1CCN1; NPrGly = CCCNCC(=O)O; Sar = CNCC(=O)O

Assays:
[1] = target: GDP-bound NRAS wild-type protein (Homo sapiens, UniProt P01111); test: Binding to NRAS by surface plasmon resonance (SPR), Single Cycle Kinetics; conditions: for NRAS/KRAS (ratio of KD value with respect to GDP-bound NRAS wild-type protein to KD value with respect to KRAS): SPR KD ratio NRAS/KRAS, class symbols
[2] = target: GDP-bound HRAS wild-type protein (Homo sapiens, UniProt P01112); test: Binding to HRAS by surface plasmon resonance (SPR), Single Cycle Kinetics; conditions: for HRAS/KRAS (ratio of KD value with respect to GDP-bound HRAS wild-type protein to KD value with respect to KRAS): SPR KD ratio HRAS/KRAS, class symbols
[3] = target: GDP-bound KRAS wild-type protein (Homo sapiens, UniProt P01116); test: Binding to KRAS by surface plasmon resonance (SPR), Single Cycle Kinetics; conditions: GDP-bound KRAS wild-type protein, read-out: KRAS KD
[4] = SPR, GDP-bound NRAS wild-type protein vs GDP-bound KRAS wild-type protein
[5] = SPR, GDP-bound HRAS wild-type protein vs GDP-bound KRAS wild-type protein
[6] = SPR Single Cycle Kinetics, 1:1 binding model

Sequence of GDP-bound HRAS wild-type protein (P01112 whole entry): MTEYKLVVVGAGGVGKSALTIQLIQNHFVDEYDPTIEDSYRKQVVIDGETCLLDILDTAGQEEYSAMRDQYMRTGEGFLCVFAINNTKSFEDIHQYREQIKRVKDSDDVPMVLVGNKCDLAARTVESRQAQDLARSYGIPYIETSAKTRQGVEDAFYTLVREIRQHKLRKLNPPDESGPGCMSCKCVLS
Sequence of GDP-bound KRAS wild-type protein (P01116 whole entry): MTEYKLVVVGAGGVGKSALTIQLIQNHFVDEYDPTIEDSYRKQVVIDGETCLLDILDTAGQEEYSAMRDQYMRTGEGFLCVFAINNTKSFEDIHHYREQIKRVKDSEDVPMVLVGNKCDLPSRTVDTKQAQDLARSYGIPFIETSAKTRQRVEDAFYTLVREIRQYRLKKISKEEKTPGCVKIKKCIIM
Sequence of GDP-bound NRAS wild-type protein (P01111 whole entry): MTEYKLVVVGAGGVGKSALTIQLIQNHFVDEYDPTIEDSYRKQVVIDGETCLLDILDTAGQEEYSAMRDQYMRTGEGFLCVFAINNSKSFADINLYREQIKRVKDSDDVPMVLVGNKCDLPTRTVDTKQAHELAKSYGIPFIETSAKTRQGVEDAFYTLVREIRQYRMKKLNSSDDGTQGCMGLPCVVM

SMILES	Kd [3, 6]	Kd ([3]; SPR, Single Cycle Kinetics)	NRAS/KRAS (ratio of KD value for NRAS to KD value for KRAS) [1, 4]	HRAS/KRAS (ratio of KD value for HRAS to KD value for KRAS) [2, 5]	other results
CCCN1CC(=O)N2CC[C@H]2C(=O)N(CCC)[C@@H](Cc2ccc(C(F)(F)F)cc2)C(=O)N(C)CC(=O)N[C@@H](CCc2ccc(C(F)(F)F)c(Cl)c2)C(=O)N2CCC[C@H]2C(=O)NC2(CCCC2)C(=O)N(C)[C@@H](C2CCCC2)C(=O)N(C)[C@H](C(=O)N2CCOCC2)CC(=O)N(C)[C@@H](CC(C)C)C(=O)N[C@@H]([C@@H](C)CC)C1=O [PP0274] ([NMeL]I[NPrGly][Aze][NPrPhe(4-CF3)][Sar][hPhe(3-Cl-4-CF3)]P[Ac5c][NMeGly(cPent)][NMeD]-Morpholide; lactam N-11)	0.47 nM		C (A compound having a KD ratio of 0.1 or more and less than 3 is denoted as C)	B (a compound having 3 or more and less than 10 is denoted as B)	
CC[C@H](C)[C@@H]1NC(=O)[C@H](CC2CC2)N(C)C(=O)C[C@@H](C(=O)N2CCCC2)N(C)C(=O)[C@H](C2CCCC2)N(C)C(=O)C2(CCCC2)NC(=O)[C@@H]2C[C@@H](F)CN2C(=O)[C@H](CCc2cc(F)c(C(F)(F)F)c(F)c2)NC(=O)CN(C)C(=O)[C@H](Cc2ccc(C(F)(F)F)cc2)N2CC/C=C\C[C@@H](C2=O)N(C)C(=O)CN(C)C1=O [PP1503]					NRAS/KRAS (ratio of KD value for NRAS to KD value for KRAS) ([1]; SPR, GDP-bound NRAS wild-type protein vs GDP-bound KRAS wild-type protein, KD ratio class): A (a compound having 10 or more and less than 20 is denoted as A); HRAS/KRAS (ratio of KD value for HRAS to KD value for KRAS) ([2]; SPR, GDP-bound HRAS wild-type protein vs GDP-bound KRAS wild-type protein, KD ratio class): A (a compound having 10 or more and less than 20 is denoted as A); Kd ([3]; SPR, Single Cycle Kinetics, 1:1 binding model): 0.11 nM
CC[C@H](C)[C@@H]1NC(=O)[C@H](CC(C)C)N(C)C(=O)C[C@@H](C(=O)N2CCOCC2)N(C)C(=O)[C@H](C2CCCC2)N(C)C(=O)C2(CCCC2)NC(=O)[C@@H]2CCCN2C(=O)[C@H](CCc2ccc(C(F)(F)F)c(Cl)c2)NC(=O)CN(C)C(=O)[C@H](Cc2ccc(C)cc2)N(CC2CCCCC2)C(=O)CN(C)C(=O)CN(C)C1=O [PP0097] ([NMeL]I[Sar][Sar][X41][Sar][hPhe(3-Cl-4-CF3)]P[Ac5c][NMeGly(cPent)][NMeD]-Morpholide; lactam N-11)	9.3 nM		C (A compound having a KD ratio of 0.1 or more and less than 3 is denoted as C)	C (A compound having a KD ratio of 0.1 or more and less than 3 is denoted as C)	
CCC[C@H]1C(=O)N[C@@H]([C@@H](C)CC)C(=O)N2CCC[C@H]2C(=O)N(C)[C@H]2C/C=C\CCN(C2=O)[C@@H](Cc2ccc(C(F)(F)F)cc2)C(=O)N(C)CC(=O)N[C@@H](CCc2ccc(C(F)(F)F)c(OC)c2)C(=O)N2C[C@H](OCC)C[C@H]2C(=O)N(C)C2(CCC2)C(=O)N(C)[C@@H](C(CC)CC)C(=O)N(C)[C@H](C(=O)N(C)C)CC(=O)N1C [PP2317]		0.4 nM	A (a compound having 10 or more and less than 20 is denoted as A)	A (a compound having 10 or more and less than 20 is denoted as A)	
CCC[C@H]1C(=O)N[C@@H]([C@@H](C)CC)C(=O)N(C)CC(=O)N(C)[C@H]2C/C=C\CCN(C2=O)[C@@H](Cc2ccc(C(F)(F)F)cc2)C(=O)N(C)CC(=O)N[C@@H](CCc2ccc(C(F)(F)F)c(Cl)c2)C(=O)N2C[C@H](OCC)C[C@H]2C(=O)NC2(CC(C)(C)C2)C(=O)N(C)[C@@H](CC(C)(C)C)C(=O)N(C)[C@H](C(=O)N(C)C)CC(=O)N1C [PP2969]	0.073 nM				NRAS/KRAS (ratio of KD value with respect to GDP-bound NRAS wild-type protein to KD value with respect to KRAS) [1]: AA (a compound having 20 or more is denoted as AA); HRAS/KRAS (ratio of KD value with respect to GDP-bound HRAS wild-type protein to KD value with respect to KRAS) [2]: A (a compound having 10 or more and less than 20 is denoted as A)
CC[C@H](C)[C@@H]1NC(=O)[C@H](C)N(C)C(=O)C[C@@H](C(=O)N2CCOCC2)N(C)C(=O)[C@H](C2CCCC2)N(C)C(=O)C2(CCC2)NC(=O)[C@@H]2CC(F)(F)CN2C(=O)[C@H](CCc2cc(F)c(C(F)(F)F)c(F)c2)NC(=O)CN(C)C(=O)[C@H](Cc2ccc(C(F)(F)F)cc2)N2CCCCC[C@@H](C2=O)N(C)C(=O)CN(C)C1=O [PP0471]	0.93 nM				NRAS/KRAS (ratio of KD value with respect to NRAS to KD value with respect to KRAS) [1, 4]: B (a compound having 3 or more and less than 10 is denoted as B); HRAS/KRAS (ratio of KD value with respect to HRAS to KD value with respect to KRAS) [2, 5]: B (a compound having 3 or more and less than 10 is denoted as B)
CCO[C@@H]1C[C@H]2C(=O)NC3(CCC3)C(=O)N(C)[C@@H](C(C)(C)C)C(=O)N(C)[C@H](C(=O)N3CCOCC3)CC(=O)N(C)[C@@H](CC(C)C)C(=O)N[C@@H]([C@@H](C)CC)C(=O)N(C)CC(=O)N(C)[C@H]3CCCCCN(C3=O)[C@@H](Cc3ccc(C(F)(F)F)cc3)C(=O)N(C)CC(=O)N[C@@H](CCc3cc(F)c(C(F)(F)F)c(F)c3)C(=O)N2C1 [PP0823]		0.82 nM	A (a compound having 10 or more and less than 20 is denoted as A)	B (a compound having 3 or more and less than 10 is denoted as B)	

More lines, main results first:

Kd [3, 6]	Kd ([3]; SPR, Single Cycle Kinetics)	SMILES	NRAS/KRAS (ratio of KD value for NRAS to KD value for KRAS) [1, 4]	HRAS/KRAS (ratio of KD value for HRAS to KD value for KRAS) [2, 5]	other results
	0.088 nM	CCO[C@@H]1C[C@H]2C(=O)NC3(CCC3)C(=O)N(C)[C@@H](C3CCCC3)C(=O)N(C)[C@H](C(=O)N(C)C)CC(=O)N(C)[C@@H](CC)C(=O)N[C@@H]([C@@H](C)CC)C(=O)N(C)CC(=O)N(C)[C@H]3C/C=C\CCN(C3=O)[C@@H](Cc3ccc(C(F)(F)F)cc3)C(=O)N(C)CC(=O)N[C@@H](CCc3ccc(C(F)(F)F)c(Cl)c3)C(=O)N2C1 [PP0978, (2S,8S,12R,14S,20S,23S,27S,30S,36S,38Z)-8-[2-[3-chloro-4-(trifluoromethyl)phenyl]ethyl]-20-cyclopentyl-12-ethoxy-27-ethyl-N,N,4,19,22,26,32,35-octamethyl-30-[(1S)-1-methylpropyl]-3,6,9,15,18,21,25,28,31,34,42-undecaoxo-2-[[4-(trifluoromethyl)phenyl]methyl]spiro[1,4,7,10,16,19,22,26,29,32,35-undecazatricyclo[34.5.1.0^10,14]dotetracont-38-ene-17,1′-cyclobutane]-23-carboxamide]	A (a compound having 10 or more and less than 20 is denoted as A)	B (a compound having 3 or more and less than 10 is denoted as B)	
	0.057 nM	CCO[C@@H]1C[C@H]2C(=O)NC3(CCC3)C(=O)N(C)[C@@H](C3CCCC3)C(=O)N(C)[C@H](C(=O)N(C)C)CC(=O)N(C)[C@@H](CC)C(=O)N[C@@H]([C@@H](C)CC)C(=O)N3CC[C@H]3C(=O)N(C)[C@H]3C[C@@H](C)CCN(C3=O)[C@@H](Cc3ccc(C(F)(F)F)cc3)C(=O)N(C)CC(=O)N[C@@H](CCc3cc(F)c(C(F)(F)F)c(F)c3)C(=O)N2C1 [PP1021]	C (A compound having a KD ratio of 0.1 or more and less than 3 is denoted as C)	B (a compound having 3 or more and less than 10 is denoted as B)	
	0.11 nM	C#CC[C@H]1C(=O)N[C@@H]([C@@H](C)CC)C(=O)N(C)CC(=O)N(C)[C@H]2C/C=C\CCN(C2=O)[C@@H](Cc2ccc(C(F)(F)F)cc2)C(=O)N(C)CC(=O)N[C@@H](CCc2cc(F)c(C(F)(F)F)c(F)c2)C(=O)N2C[C@H](OCC)C[C@H]2C(=O)NC2(CC(C)(C)C2)C(=O)N(C)[C@@H](C2CCCC2)C(=O)N(C)[C@H](C(=O)N(C)CCC)CC(=O)N1C [PP2074]	A (a compound having 10 or more and less than 20 is denoted as A)	A (a compound having 10 or more and less than 20 is denoted as A)	
0.18 nM		CCO[C@@H]1C[C@H]2C(=O)NC3(CC(C)(C)C3)C(=O)N(C)[C@@H](C3CCCC3)C(=O)N(C)[C@H](C(=O)N(C)C)CC(=O)N(C)[C@@H](CC(F)(F)F)C(=O)N[C@@H]([C@@H](C)CC)C(=O)N(C)CC(=O)N(C)[C@H]3C/C=C\CCN(C3=O)[C@@H](Cc3ccc(C(F)(F)F)cc3)C(=O)N(C)CC(=O)N[C@@H](CCc3ccc(Cl)c(Cl)c3)C(=O)N2C1 [PP2832]			NRAS/KRAS (ratio of KD value with respect to GDP-bound NRAS wild-type protein to KD value with respect to KRAS) [1]: A (a compound having 10 or more and less than 20 is denoted as A); HRAS/KRAS (ratio of KD value with respect to GDP-bound HRAS wild-type protein to KD value with respect to KRAS) [2]: A (a compound having 10 or more and less than 20 is denoted as A)
	0.43 nM	CCO[C@@H]1C[C@H]2C(=O)NC3(CCC3)C(=O)N(C)[C@@H](C3CCCC3)C(=O)N(C)[C@H](C(=O)N(C)C)CC(=O)N(C)[C@@H](Cc3cccc(F)c3)C(=O)N[C@@H]([C@@H](C)CC)C(=O)N(C)CC(=O)N(C)[C@H]3CCCCCN(C3=O)[C@@H](Cc3ccc(C(F)(F)F)cc3)C(=O)N(C)CC(=O)N[C@@H](CCc3cc(F)c(C(F)(F)F)c(F)c3)C(=O)N2C1 [PP0935]	B (a compound having 3 or more and less than 10 is denoted as B)	B (a compound having 3 or more and less than 10 is denoted as B)	
